Assay results: EP1304333A2, “6,7-Oxygenated steroids and uses related thereto” (Inflazyme Pharmaceuticals, Ltd., priority 1996, dated 1998)

What was measured:
isolated trachea = experiment: Allergen (OA)-induced contraction of isolated trachea from sensitized guinea pigs; set-up: species or system guinea pig; settings: 20 µM compound
Experimental: The effects of a number of the compounds described herein on allergen-induced bronchoconstriction were evaluated for anti-asthma activity. The ability of a compound to inhibit allergen-induced decreases in lung function in sensitized guinea pigs in response to antigen-challenge is indicative of anti-asthma activity. In particular, the model system is useful in the evaluation of the potential effects of a compound in the treatment of the early asthmatic reaction (EAR) when severe bronchoconstriction occurs.
Guinea pigs were exposed to a nebulized solution of 1% ovalbumin (OA) in saline for 15 min. […] Tracheal rings were prepared and bathed in Krebs-Henseleit solution at 37°C and aerated with 5% CO2 in O2. Tissues were suspended under a resting tension of 2 g and isometric contractions were measured using force-displacement transducers coupled to a polygraph. Tissues were incubated with each compound or 0.1% dimethylsulfoxide (as a control) for 20 min, after which increasing concentrations of OA (0.001 - 100 µg/ml) were added to the tissue. After the final concentration of OA was added and the response was recorded, the tissues were stimulated with 100 µM methacholine which caused maximum contraction of the trachea. The magnitude of the contraction induced by OA in the presence of each compound was expressed as a percentage of the maximum contraction obtained using methacholine (100 µM).

rabbit platelets = experiment: Inhibition of PAF-induced aggregation of rabbit platelets; format: cell-based; settings: Oryctolagus cuniculus, Platelet; 80 µM compound, 5 min preincubation; PAF-induced aggregation (title: 0.1 nM PAF) vs DMSO alone
Experimental: The assay system used to evaluate the ability of compounds to inhibit the aggregation of platelets in response to exogenous stimuli is indicative of anti-thrombotic or thrombolytic activity.
Platelets were isolated from rabbit blood and prepared at a density of 2.4 x 10^8 cells/ml in Tyrodes buffer (pH 7.2) containing Ca^2+. Platelets were incubated with each compound for 5 min at 37°C prior to stimulation. Platelets were stimulated with 1 nM platelet activating factor (PAF; EC75) in the presence of each of the compounds and aggregation was monitored for 5 min. Compounds were solubilized in dimethylsulfoxide (DMSO) and aggregation was measured as a percentage of the response to 1 nM PAF obtained in the presence of the appropriate concentration of DMSO. The degree of inhibition caused by each sample was calculated using the control response in the presence of DMSO equal to 100%.

[1] = system: ileum from sensitized guinea pigs; experiment: Antigen (ovalbumin)-induced contraction of isolated ileum from sensitized guinea pigs; set-up: species or system guinea pig; settings: each 30 µM, 20 min; 100 µg/ml ovalbumin; mean, n=3-4, vs DMSO alone
Experimental: The ability of compounds to inhibit allergen-induced contraction of ileum from sensitized animals is indicative of antiallergic activity. Sensitized guinea pig ileum is particularly useful in measuring the immediate allergic response.
The guinea pig ileum has been used to evaluate the ability of compounds to inhibit allergen-induced histamine and mediator release causing smooth muscle contraction. Guinea pigs were sensitized by an intraperitoneal injection of 100 mg ovalbumin and an intramuscular injection of 50 mg ovalbumin on day 0, followed by a second intramuscular injection of 50 mg ovalbumin on day 1. […] Segments of ileum were prepared and suspended, with muscle contractions being measured in the longitudinal plane, in Tyrode's buffer at 37°C and aerated with 5% CO2 in O2. Tissues were suspended under a resting tension of 2 grams and isometric contractions were measured using force-displacement transducers coupled to a polygraph. Tissues were stimulated with 3 µM histamine 3 times to ensure reproducible contractions were obtained. Tissues were then incubated with each compound (30 µM) or 0.15% dimethylsulphoxide (DMSO) as a control, for 20 min, after which time the tissues were challenged with 100 µg/ml ovalbumin. The magnitude of the contraction induced by OA in the presence of each compound was expressed as a percentage of the contraction obtained to 3 µM histamine. […]

C[C@]12CC[C@@H](O)[C@H](O)C1[C@@H](O)[C@H](O)C1C2CC[C@]2(C)C(=O)CCC12 (some centres unmarked) [Compound 145]
percentage contraction compared to 100µM methacholine (100%) (isolated trachea; Study 1, 0.001 µg/ml OA): 0.8%
percentage contraction compared to 100µM methacholine (100%) (isolated trachea; Study 1, 0.003 µg/ml OA): 6.2%
percentage contraction compared to 100µM methacholine (100%) (isolated trachea; Study 1, 0.01 µg/ml OA): 5.9%
percentage contraction compared to 100µM methacholine (100%) (isolated trachea; Study 1, 0.03 µg/ml OA): 7.6%
percentage contraction compared to 100µM methacholine (100%) (isolated trachea; Study 1, 0.1 µg/ml OA): 8.3%
percentage contraction compared to 100µM methacholine (100%) (isolated trachea; Study 1, 0.3 µg/ml OA): 13.6%
percentage contraction compared to 100µM methacholine (100%) (isolated trachea; Study 1, 1.0 µg/ml OA): 14.8%
percentage contraction compared to 100µM methacholine (100%) (isolated trachea; Study 1, 3.0 µg/ml OA): 20.0%
percentage contraction compared to 100µM methacholine (100%) (isolated trachea; Study 1, 10.0 µg/ml OA): 28.0%
percentage contraction compared to 100µM methacholine (100%) (isolated trachea; Study 1, 30.0 µg/ml OA): 31.0%

CC(C)[C@@H]1CC(O)OC([C@@H](C)[C@H]2CC(=O)[C@@H]3[C@@H]4C(O)C(O)C5C(O)C(O)CC[C@]5(C)[C@H]4CC[C@]23C)C1 (stereo partly drawn) [Compound 165, 22,29-epoxy-3,4,6,7,29-pentahydroxy-14β-stigmastan-15-one]
inhibition at 80 µM (rabbit platelets): 51.2%
Percentage Inhibition [1]: 27.0%

CC1(C)O[C@@H]2C3C(CC[C@@]4(C)C3CC[C@@H]4O[Si](C)(C)C(C)(C)C)[C@@]3(C)CC[C@H](O)[C@@H](O)C3[C@H]2O1 (some centres unmarked) [Compound 236]
percentage contraction compared to 100µM methacholine (100%) (isolated trachea; Study 1, 0.001 µg/ml OA): 1.9%
percentage contraction compared to 100µM methacholine (100%) (isolated trachea; Study 1, 0.003 µg/ml OA): 5.6%
percentage contraction compared to 100µM methacholine (100%) (isolated trachea; Study 1, 0.01 µg/ml OA): 5.6%
percentage contraction compared to 100µM methacholine (100%) (isolated trachea; Study 1, 0.03 µg/ml OA): 5.6%
percentage contraction compared to 100µM methacholine (100%) (isolated trachea; Study 1, 0.1 µg/ml OA): 11.1%
percentage contraction compared to 100µM methacholine (100%) (isolated trachea; Study 1, 0.3 µg/ml OA): 16.7%
percentage contraction compared to 100µM methacholine (100%) (isolated trachea; Study 1, 1.0 µg/ml OA): 39%
percentage contraction compared to 100µM methacholine (100%) (isolated trachea; Study 1, 3.0 µg/ml OA): 28%
percentage contraction compared to 100µM methacholine (100%) (isolated trachea; Study 1, 10.0 µg/ml OA): 39%
percentage contraction compared to 100µM methacholine (100%) (isolated trachea; Study 1, 30.0 µg/ml OA): 41%

C[C@]12CC[C@@H](O)[C@H](O)[C@@H]1[C@@H](O)[C@H](O)[C@@H]1[C@@H]2CC[C@]2(C)[C@@H](O)CC[C@@H]12 [Compound 241, 3α,4β,6α,7β,17β-pentahydroxy-5α-androstane]
inhibition at 80 µM (rabbit platelets): 93.1%
percentage contraction compared to 100µM methacholine (100%) (isolated trachea; Study 1, 0.001 µg/ml OA): 8.5%
percentage contraction compared to 100µM methacholine (100%) (isolated trachea; Study 1, 0.003 µg/ml OA): 12.6%
percentage contraction compared to 100µM methacholine (100%) (isolated trachea; Study 1, 0.01 µg/ml OA): 17.1%
percentage contraction compared to 100µM methacholine (100%) (isolated trachea; Study 1, 0.03 µg/ml OA): 25.8%
percentage contraction compared to 100µM methacholine (100%) (isolated trachea; Study 1, 0.1 µg/ml OA): 31.0%
percentage contraction compared to 100µM methacholine (100%) (isolated trachea; Study 1, 0.3 µg/ml OA): 33.4%
percentage contraction compared to 100µM methacholine (100%) (isolated trachea; Study 1, 1.0 µg/ml OA): 36.3%
percentage contraction compared to 100µM methacholine (100%) (isolated trachea; Study 1, 3.0 µg/ml OA): 34.4%
percentage contraction compared to 100µM methacholine (100%) (isolated trachea; Study 1, 10.0 µg/ml OA): 35.0%
percentage contraction compared to 100µM methacholine (100%) (isolated trachea; Study 1, 30.0 µg/ml OA): 37.0%

C[C@]12CC[C@@H](O)C[C@@H]1[C@@H](O)[C@H](O)[C@@H]1[C@@H]2CC[C@]2(C)C(=O)CC[C@@H]12 [Compound 326]
percentage contraction compared to 100µM methacholine (100%) (isolated trachea; Study 2, 0.01 µg/ml OA): 0%
percentage contraction compared to 100µM methacholine (100%) (isolated trachea; Study 2, 0.1 µg/ml OA): 10.25%
percentage contraction compared to 100µM methacholine (100%) (isolated trachea; Study 2, 1 µg/ml OA): 23.4%
percentage contraction compared to 100µM methacholine (100%) (isolated trachea; Study 2, 10 µg/ml OA): 43.9%
percentage contraction compared to 100µM methacholine (100%) (isolated trachea; Study 2, 100 µg/ml OA): 49.1%

C[C@]12CC[C@@H](O)C[C@@H]1[C@@H](O)[C@H](O)[C@@H]1[C@@H]2CC[C@]2(C)[C@@H](O)CC[C@@H]12 [Compound 327]
percentage contraction compared to 100µM methacholine (100%) (isolated trachea; Study 2, 0.01 µg/ml OA): 0%
percentage contraction compared to 100µM methacholine (100%) (isolated trachea; Study 2, 0.1 µg/ml OA): 0%
percentage contraction compared to 100µM methacholine (100%) (isolated trachea; Study 2, 1 µg/ml OA): 9.1%
percentage contraction compared to 100µM methacholine (100%) (isolated trachea; Study 2, 10 µg/ml OA): 27.3%
percentage contraction compared to 100µM methacholine (100%) (isolated trachea; Study 2, 100 µg/ml OA): 40.9%

CC[C@H]1CCC2C3C(CC[C@@]21C)[C@@]1(C)CC[C@@H](O)CC1[C@@H](O)[C@@H]3O (some centres unmarked) [Compound 339]
Percentage Inhibition [1]: 36.3%
